From PubChem BioAssay (NCI)
“And” between values parts separate entries of the source, which are not always exact repeats. Equal entries are not always repeated.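 Exposure lasted 48 hours, with cells grown in 96-well plates and compounds tested at five concentrations. GI50 marks 50% less growth. TGI denotes the concentration required for complete inhibition of growth.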

Columns and labels:
Test in all cases: NCI anticancer screen, dose series, 48 h
A498 renal = test system: A498 renal
A549 NSCLC = test system: A549 NSCLC
ACHN renal = test system: ACHN renal
DU-145 prostate = test system: DU-145 prostate
HCT-15 colon = test system: HCT-15 colon
MDA-MB-435 = test system: MDA-MB-435
RPMI-8226 leukemia = test system: RPMI-8226 leukemia
SK-MEL-2 melanoma = test system: SK-MEL-2 melanoma
SK-OV-3 ovarian = test system: SK-OV-3 ovarian
U251 CNS = test system: U251 CNS

Row | SMILES | GI50 (A498 renal) | TGI (A498 renal) | GI50 (A549 NSCLC) | TGI (A549 NSCLC) | GI50 (ACHN renal) | TGI (ACHN renal) | GI50 (DU-145 prostate) | TGI (DU-145 prostate) | GI50 (HCT-15 colon) | TGI (HCT-15 colon) | GI50 (MDA-MB-435) | TGI (MDA-MB-435) | GI50 (RPMI-8226 leukemia) | TGI (RPMI-8226 leukemia) | GI50 (SK-MEL-2 melanoma) | GI50 (SK-OV-3 ovarian) | TGI (SK-OV-3 ovarian) | GI50 (U251 CNS) | TGI (U251 CNS) | TGI (SK-MEL-2 melanoma)
1 | CN(c1ccccc1)c1c2ccccc2nc2[nH]c3ccccc3c12 | 2.04 µM | 5.32 µM | 0.943 µM | 3.27 µM | 1.43 µM | 3.2 µM | 1.44 µM | 8.76 µM | 2.73 µM | > 31.9 µM | 3.26 µM | 9.25 µM | 1.49 µM | 3.92 µM | 7.71 µM | 3.75 µM | 14.1 µM | 1.68 µM | > 25.5 µM | –
2 | O=C1NC(=O)C2C3C=CC(C12)C1C2C(=O)NC(=O)C2C31 (stereo not drawn) | 467 µM | 250 µM and > 1000 µM | 172 µM | 250 µM and > 1000 µM | 766 µM | > 1000 µM | > 619 µM | > 1000 µM | > 43.6 µM and 646 µM | > 61 µM and 250 µM and > 1000 µM | > 250 µM | > 1000 µM | > 76.6 µM and 577 µM | 203 µM and > 1000 µM | > 719 µM | > 767 µM | 108 µM and > 1000 µM | – | 244 µM and > 1000 µM | 244 µM and > 1000 µM
3 | COc1nc(N)nc2nc[nH]c12 | 306 µM and 335 µM | 500 µM and 800 µM and 691 µM | > 800 µM and 713 µM | > 1000 µM | 454 µM and 381 µM | 500 µM and 800 µM and > 1000 µM | 720 µM | 500 µM and > 1000 µM | > 800 µM | 500 µM and > 800 µM and > 1000 µM | > 801 µM | > 1000 µM | 677 µM | 500 µM and > 1000 µM | > 800 µM | 776 µM and 508 µM | 212 µM and 800 µM and > 1000 µM | > 800 µM and 741 µM | 500 µM and > 800 µM and > 1000 µM | 500 µM and > 800 µM and > 853 µM
4 | C=C(C)c1nc(Oc2ccccc2)nc(Oc2ccccc2)n1 | – | 31.1 µM | – | 38.8 µM | – | 23 µM | – | 30.4 µM | – | 7.43 µM | – | 22.3 µM | – | 12 µM | – | – | 30.3 µM | – | 23.2 µM | 9.51 µM
5 | COc1ccc(-c2c(Nc3ccccn3)nc3c(C4=CCCCC4)c(-c4ccccc4)[nH]n3c2=O)cc1 | 2.01 µM | 15.4 µM | 1.94 µM | > 100 µM | 2 µM | 24.9 µM | 3.62 µM | > 100 µM | 1.64 µM | > 100 µM | 2.71 µM | > 100 µM | 1.43 µM | 5.66 µM | 2.21 µM | 3.44 µM | 17.5 µM | 1.95 µM | 17.9 µM | 9.54 µM
6 | COc1ccc(Cn2c(Br)c3c(c2-c2cc(OC)c(OC)c(OC)c2)CCc2sc(N)nc2-3)cc1 | 0.267 µM | 2.36 µM | 2.23 µM | > 100 µM | 1.07 µM | 25.7 µM | 2.04 µM | 7.43 µM | 1.05 µM | > 48.7 µM | 0.224 µM | 0.537 µM | 3.16 µM | 32.4 µM | 0.72 µM | 1.2 µM | 8.04 µM | 1.3 µM | 12.7 µM | 5.41 µM
7 | O=C1NC(=NCc2cccs2)O/C1=C\c1ccc2ncccc2c1 | 0.606 µM | 4.81 µM | 4.46 µM | 12.5 µM | 4.07 µM | 21.5 µM | 5.82 µM | > 25 µM | 6.38 µM | > 25 µM | 4.51 µM | 14.4 µM | 4.26 µM | 17.3 µM | 4.2 µM | 4.1 µM | 12.2 µM | 5.07 µM | > 18.8 µM | 9.82 µM
8 | O=C(CCN1CCOCC1)Nc1ccc(Cn2nnc3c2C(=O)c2nnn(Cc4ccc(NC(=O)CCN5CCOCC5)cc4)c2C3=O)cc1 | > 100 µM | > 100 µM | > 100 µM | > 100 µM | > 100 µM | > 100 µM | 18.6 µM | > 52.4 µM | > 100 µM | > 100 µM | 0.324 µM | 0.799 µM | 1.43 µM | > 21.1 µM | – | > 84 µM | > 100 µM | 4.25 µM | 18.4 µM | –
9 | c1cc(OCCCCCOc2cccc(-c3nc4ccccc4[nH]3)c2)cc(-c2nc3ccccc3[nH]2)c1 | 2.61 µM | 7.91 µM | – | – | 2.35 µM | 46.2 µM | 3.27 µM | > 100 µM | 2.71 µM | > 100 µM | 2.26 µM | 6.74 µM | – | – | 2.05 µM | 2.51 µM | 18.1 µM | 3.07 µM | > 100 µM | 5.67 µM
10 | O=C1C[C@@H]2OCC=C3C[N+]4([O-])CC[C@]56c7ccccc7N1[C@H]5[C@H]2[C@H]3C[C@@H]64 (stereo partly drawn) | > 100 µM | > 100 µM | > 100 µM | > 100 µM | > 100 µM | > 100 µM | > 100 µM | > 100 µM | > 100 µM | > 100 µM | > 100 µM | > 100 µM | > 100 µM | > 100 µM | – | > 100 µM | > 100 µM | > 100 µM | > 100 µM | –
11 | COc1cc(NC(=O)COc2ccccc2)c(C(N)=O)cc1OC | 2.77 µM | 15.4 µM | 0.917 µM | > 100 µM | 8.12 µM | > 100 µM | 0.914 µM | > 100 µM | 0.804 µM | > 100 µM | 0.203 µM | 0.875 µM | 2.27 µM | > 100 µM | – | 3.58 µM | 22.7 µM | 0.777 µM | 17.9 µM | –
